Test results taken from ChEMBL document CHEMBL1201862, “PubChem BioAssay data set” (2004).
Activity calls are given as the source filed them. For most assays here, no stated cut-off is given here; in the data, actives have a measured EC50 and inactives only a lower limit.

Assays:
[1] = tested on: Streptococcus sp. 'group A'; assay: growth inhibition of control SK(-) GAS strain, dose response, counter-screen for streptokinase expression inhibitor project, luminescence, kanamycin, BacTiterGlo, confirmation (AID 1900); format: functional, organism-based
Streptokinase A = molecular target: T1, Streptokinase A (Streptococcus pyogenes serotype M1, UniProt P10520); assay: S. pyogenes streptokinase expression inhibitors, potency, dose response, plasminogen activation absorbance, OD405 (AID 1914); format: functional, Streptococcus pyogenes M1 GAS;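 further: secreted streptokinase activity via plasminogen activation per viability signal from cell pellet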
T1 sequence (P10520 whole entry): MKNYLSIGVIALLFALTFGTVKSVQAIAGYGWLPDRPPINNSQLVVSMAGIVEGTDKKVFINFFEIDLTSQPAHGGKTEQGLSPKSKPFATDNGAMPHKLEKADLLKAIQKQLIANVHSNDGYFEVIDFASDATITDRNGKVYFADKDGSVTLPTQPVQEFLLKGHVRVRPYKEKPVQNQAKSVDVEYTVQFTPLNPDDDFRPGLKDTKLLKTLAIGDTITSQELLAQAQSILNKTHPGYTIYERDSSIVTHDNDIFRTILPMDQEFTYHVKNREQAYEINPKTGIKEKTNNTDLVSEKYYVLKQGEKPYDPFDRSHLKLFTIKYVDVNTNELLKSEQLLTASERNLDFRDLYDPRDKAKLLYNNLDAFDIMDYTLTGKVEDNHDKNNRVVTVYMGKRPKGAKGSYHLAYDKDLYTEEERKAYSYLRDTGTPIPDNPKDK

Streptococcus = assay: Group A Streptococcus viability loss, dose response, counter-screen for streptokinase expression inhibitor project, luminescence, BacTiterGlo (AID 1915); format: functional, organism-based;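 further: potency for reduction of bacterial viability or growth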
[2] = inhibitors of intracellular T. cruzi replication, confirmation, NIH3T3 host cells, beta-gal luminescence (AID 2044); format: functional, cell-based;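 further: intracellular parasites grown in NIH/3T3 mouse fibroblasts as host cells; luminescent beta-galactosidase reporter signal from transgenic T. cruzi replicating inside host cells; inhibitors lower the luminescence signal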
[3] = cytotoxicity toward NIH3T3 fibroblasts, dose response, counter-screen, cell-based, ATP luminescence, mouse fibroblasts (AID 2010); format: functional;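 further: cells exposed to compound for about 90 hours before reading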
Cytochrome P450 2D6 = Cytochrome P450 2D6 (Homo sapiens, UniProt P10635);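 further: CYP2D6 member of a cytochrome P450 panel assay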
Chain of Cytochrome P450 2D6 (P10635 whole entry): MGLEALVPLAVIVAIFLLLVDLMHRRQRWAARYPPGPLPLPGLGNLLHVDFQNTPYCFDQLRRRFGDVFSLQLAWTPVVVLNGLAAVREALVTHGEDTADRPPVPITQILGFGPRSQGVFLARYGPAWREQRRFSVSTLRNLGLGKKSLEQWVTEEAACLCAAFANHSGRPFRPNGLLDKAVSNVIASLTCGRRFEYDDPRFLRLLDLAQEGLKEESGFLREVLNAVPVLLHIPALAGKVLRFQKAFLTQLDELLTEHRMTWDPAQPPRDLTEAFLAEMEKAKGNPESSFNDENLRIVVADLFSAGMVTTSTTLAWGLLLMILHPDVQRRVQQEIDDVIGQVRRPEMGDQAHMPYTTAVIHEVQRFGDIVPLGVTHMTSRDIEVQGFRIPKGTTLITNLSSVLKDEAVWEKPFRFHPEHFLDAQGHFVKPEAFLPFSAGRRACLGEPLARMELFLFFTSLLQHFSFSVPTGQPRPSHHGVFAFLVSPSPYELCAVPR

[4] = molecular target: T2, Corticotropin-releasing factor receptor 2/Corticotropin-releasing factor-binding protein (Homo sapiens, UniProt P24387+Q13324); assay: activators of CRF receptor 2 with binding protein – uHTS hits, confirmation (AID 602473); format: functional; conditions: read-out: EC50_Mean
T2 sequence (Q13324 whole entry): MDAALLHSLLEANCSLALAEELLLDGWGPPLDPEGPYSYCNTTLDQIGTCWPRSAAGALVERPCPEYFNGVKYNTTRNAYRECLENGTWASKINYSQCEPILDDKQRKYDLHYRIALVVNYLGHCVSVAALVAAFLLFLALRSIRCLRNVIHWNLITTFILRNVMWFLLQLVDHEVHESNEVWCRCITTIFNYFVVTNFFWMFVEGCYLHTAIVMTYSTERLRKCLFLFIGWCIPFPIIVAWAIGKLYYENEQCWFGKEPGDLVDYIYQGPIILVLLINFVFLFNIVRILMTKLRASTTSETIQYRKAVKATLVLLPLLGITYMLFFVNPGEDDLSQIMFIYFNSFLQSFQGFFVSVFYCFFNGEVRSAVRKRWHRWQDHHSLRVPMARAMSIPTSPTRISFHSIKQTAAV
T2 sequence (P24387 whole entry): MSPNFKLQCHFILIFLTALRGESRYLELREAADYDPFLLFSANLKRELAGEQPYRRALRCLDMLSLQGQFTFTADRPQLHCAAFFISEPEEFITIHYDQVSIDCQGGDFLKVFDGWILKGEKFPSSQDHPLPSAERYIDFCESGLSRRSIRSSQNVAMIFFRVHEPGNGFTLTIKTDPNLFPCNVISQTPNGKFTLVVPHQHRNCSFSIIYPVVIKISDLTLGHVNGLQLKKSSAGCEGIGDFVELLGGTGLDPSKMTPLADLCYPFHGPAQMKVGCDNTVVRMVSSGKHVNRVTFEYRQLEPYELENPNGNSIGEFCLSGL

[5] = molecular target: T2, Corticotropin-releasing factor receptor 2/Corticotropin-releasing factor-binding protein; assay: Dose Response confirmation of uHTS hits for small molecule antagonists of the CRF-binding protein and CRF-R2 receptor complex.; format: functional; conditions: read-out: IC50_Mean

Cc1cc(S(=O)(=O)NCCC2=CCCCC2)ccc1Br
EC50 [1]: 9.73 µM (active) | EC50 (Streptokinase A): 10.4 µM (active) | EC50 (Streptococcus): > 150 µM (not active)

CCN(CC)CCn1c(SCC(=O)NCCC2=CCCCC2)nc2c(sc3ccccc32)c1=O
EC50 [2]: 2 µM (active) | EC50 [3]: 15.7 µM (active)

O=C(Nc1nc(-c2ccccc2)cs1)c1cccc([N+](=O)[O-])c1
EC50 [2]: 2.4 µM (active) | EC50 [3]: > 60 µM (not active)

COc1ccc(C2CC3=Nc4ncnn4C(c4ccccc4C)C3=C(O)C2)c(OC)c1 (stereo not drawn)
EC50 [2]: 1.56 µM (active) | EC50 [3]: > 60 µM (not active)

O=C(CSc1nnc(NC(=O)c2ccccc2)s1)NCC1CCCO1 (stereo not drawn)
EC50 [1]: > 150 µM (not active) | EC50 (Streptokinase A): > 150 µM (not active) | EC50 (Streptococcus): > 150 µM (not active)

CCOC(=O)Cn1c(CN(Cc2ccccc2)Cc2ccccc2)nc2c1c(=O)[nH]c(=O)n2C
AC50 (Cytochrome P450 2D6): 31.6 µM (inconclusive)

C/C=C/c1ccc(OCC(O)CN(C)Cc2ccc(SC)cc2)c(OC)c1 (stereo not drawn)
EC50 [2]: 0.388 µM (active) | EC50 [3]: > 60 µM (not active)

Cc1ccc(N/N=C/C=C/c2ccco2)cc1
EC50 [2]: 3.31 µM (active) | EC50 [3]: > 30 µM (not active)

CCOc1ccc(NS(=O)(=O)c2ccc(NC(=O)[C@@H]3CCCC[C@@H]3C(=O)O)cc2)cc1
EC50 [4]: > 53 µM (inactive)

CC(C)Oc1cccc(C(=O)C2CCCN(Cc3cnc(N4CCOCC4)s3)C2)c1 (stereo not drawn)
EC50 [2]: 0.146 µM (active) | EC50 [3]: > 30 µM (not active)

O=C(Nc1cccc2ncccc12)c1ccc2c(c1)OCCO2
EC50 [4]: > 53 µM (inactive)

O=C(CNS(=O)(=O)c1cccs1)NCCc1ccc(Cl)cc1
EC50 [4]: > 53 µM (inactive) | IC50 [5]: > 47.1 µM (inactive)

C[C@H](C(=O)O)c1cccc(Oc2ccccc2)c1
AC50 (Cytochrome P450 2D6): 12.6 µM (inconclusive)

O=C(Nc1cccnc1)c1ccc(-c2ccc(Cl)cc2)o1
EC50 [4]: > 53 µM (inactive) | IC50 [5]: > 47.1 µM (inactive)

Cn1c2ccccc2c(=O)c2cc(C#Cc3ccc(N)cc3)ccc21
EC50 [1]: 0.713 µM (active) | EC50 (Streptococcus): 3.34 µM (active)

Cc1cc(NS(=O)(=O)c2c(C(=O)N3CCOCC3)c(C)n(C)c2C)ccc1Br
EC50 [4]: > 53 µM (inactive) | IC50 [5]: > 47.1 µM (inactive)

Cc1cccc(Nc2nc(N)nc(CN3CCN(c4ccc(F)cc4)CC3)n2)c1
EC50 [1]: 12.1 µM (active) | EC50 (Streptokinase A): > 150 µM (not active) | EC50 (Streptococcus): 95.3 µM (active)

CS(=O)(=O)N1CCC2(CC1)CN(Cc1ccccc1)C2
AC50 (Cytochrome P450 2D6): 15.8 µM (inconclusive)

c1ccc(C(c2nnnn2C2CCCC2)N2CCN(c3nc4ccccc4s3)CC2)cc1 (stereo not drawn)
EC50 [2]: 1.95 µM (active) | EC50 [3]: > 60 µM (not active)

CC(C(=O)Nc1sccc1C(N)=O)N1C(=O)C2CC=CCC2C1=O (stereo not drawn)
EC50 [4]: > 53 µM (inactive) | IC50 [5]: > 47.1 µM (inactive)

CC1=C(C)CC2(C(=O)NC(=S)NC2=O)C(C)C1 (stereo not drawn)
EC50 [4]: > 53 µM (inactive)

Cc1ccc(N2C(=O)NC(=O)/C(=C\c3ccoc3)C2=O)cc1
EC50 [4]: > 53 µM (inactive)

Cc1ccccc1S(=O)(=O)Cc1ccc(C(=O)NCCN2CCN(Cc3ccccc3)CC2)o1
EC50 [2]: 1.4 µM (active) | EC50 [3]: > 60 µM (not active)

CSc1ccccc1C(=O)C1CCCN(Cc2cnn(-c3ccccc3)c2)C1 (stereo not drawn)
EC50 [2]: 0.245 µM (active) | EC50 [3]: > 60 µM (not active)

Cc1noc(/C=C/c2ccc(-c3ccccc3Cl)o2)c1[N+](=O)[O-]
EC50 [4]: 5.11 µM (active)

CCOC(=O)c1ccc(NC(S)=NN2CCN(C)CC2)cc1
EC50 [2]: 1.08 µM (active) | EC50 [3]: > 60 µM (inconclusive)

COc1cccc(-c2nc(NCc3ccccc3)c3ccccc3n2)c1
AC50 (Cytochrome P450 2D6): 20 µM (inconclusive)

COc1ccc(/C=C(/C(=O)c2ccc(Cl)cc2Cl)n2cncn2)cc1
EC50 [2]: 0.423 µM (active) | EC50 [3]: 31.4 µM (active)

N#Cc1ccc(CSc2nnc(-c3ccncc3)n2CCc2ccccc2)cc1
EC50 [2]: 0.772 µM (active) | EC50 [3]: > 60 µM (not active)

CN(CC[C@@H](Oc1ccc(-c2ccccc2)cc1)c1ccc(F)cc1)CC(=O)O
AC50 (Cytochrome P450 2D6): 31.6 µM (inconclusive)

CNc1c([N+](=O)[O-])nn(-c2ccc3c(c2)OCCO3)[n+]1[O-]
EC50 [2]: 0.68 µM (active) | EC50 [3]: 20.1 µM (active)

Cc1cccc(N2CCN(C(=O)c3ccc(Cl)c(S(=O)(=O)N4CCc5ccccc5C4)c3)CC2)c1C
EC50 [2]: 1.13 µM (active) | EC50 [3]: > 60 µM (inconclusive)

Cc1cc(C)c2nc(NC(=O)c3ccc4c(=O)n5c(nc4c3)CCCCC5)sc2c1
EC50 [4]: > 53 µM (inactive) | IC50 [5]: > 47.1 µM (inactive)

CC1CCCN(CCOCCSc2ccccc2)C1 (stereo not drawn)
EC50 [2]: 0.297 µM (active) | EC50 [3]: > 60 µM (not active)

COc1ccc(CN2CCN(Cc3cccc4nonc34)CC2CCO)c(C)c1C (stereo not drawn)
EC50 [2]: 0.403 µM (active) | EC50 [3]: > 60 µM (not active)

CC(C)(C)CC(=O)N1CCC(c2nc(O)c3nnn(Cc4c(F)cccc4Cl)c3n2)CC1
EC50 (Streptokinase A): > 150 µM (not active) | EC50 (Streptococcus): 16.7 µM (active)

COc1cccc(N/C(SCc2cccc([N+](=O)[O-])c2)=C(/C#N)C(N)=O)c1
EC50 [2]: 4.17 µM (active) | EC50 [3]: > 60 µM (not active)

Cc1ccc(-c2nn(C(C)(C)C)c3ncnc(NS(=O)(=O)c4ccc([N+](=O)[O-])cc4)c23)cc1
EC50 [2]: 2.33 µM (active) | EC50 [3]: > 60 µM (not active)

CN(C)CCCN(C(=O)c1cc2ccccc2oc1=O)c1nc2c(F)cccc2s1
EC50 [2]: 0.118 µM (active) | EC50 [3]: > 60 µM (not active)

CCCC[C@@H]1C[C@H]1C(NC(=O)c1ccco1)c1ccc(Cl)cc1 (stereo partly drawn)
AC50 (Cytochrome P450 2D6): 39.8 µM (inconclusive)

Cc1ccccc1NC(=O)C(C)c1cccc(C(=O)c2ccccc2)c1 (stereo not drawn)
AC50 (Cytochrome P450 2D6): 25.1 µM (inconclusive)

Fc1ccc(-c2cc(C(F)(F)F)nc(N3CCCCC3)n2)cc1
EC50 [1]: 10.3 µM (active) | EC50 (Streptokinase A): 6.14 µM (active) | EC50 (Streptococcus): 13.1 µM (active)

Cc1noc(C)c1-c1ccc2ncnc(NCc3cccnc3)c2c1
AC50 (Cytochrome P450 2D6): 12.6 µM (inconclusive)

CCOc1ccc(N=C(N)Nc2nc(C)cc(C)n2)cc1
EC50 [4]: 6.95 µM (active)

COc1ccc(/C=c2\s/c(=C/C(=O)c3ccc(C)cc3)[nH]c2=O)cc1OC
EC50 [4]: 13.4 µM (active) | EC50 [1]: 13.2 µM (active) | EC50 (Streptokinase A): > 150 µM (not active) | EC50 (Streptococcus): > 150 µM (not active)

CN1CCc2cc3c(cc2[C@@H]1[C@@H]1C(=O)Oc2c1ccc1c2OCO1)OCO3
AC50 (Cytochrome P450 2D6): 39.8 µM (inconclusive)

O=C(c1cnccn1)N1CCC2(CCCN(c3ncccn3)C2)CC1
AC50 (Cytochrome P450 2D6): 15.8 µM (inconclusive)

COc1ccc(O)c(C(=O)c2cc(C#N)c(=O)n(-c3c(C)n(C)n(-c4ccccc4)c3=O)c2)c1
EC50 [4]: 6.39 µM (active)

Cc1cc(NC(=O)CCCn2cnc([N+](=O)[O-])n2)no1
EC50 [2]: 0.797 µM (active) | EC50 [3]: > 60 µM (inconclusive)

Cc1c(C(=O)Nc2ccc(S(=O)(=O)N(C)C3CCN(C)CC3)cc2)oc2c(Cl)cccc12
EC50 [2]: 0.85 µM (active) | EC50 [3]: > 30 µM (not active)

COc1ccc(NC(=O)N2CCCC3(CCN(S(=O)(=O)c4ccccc4)CC3)C2)cc1
AC50 (Cytochrome P450 2D6): 15.8 µM (inconclusive)

Cc1cc(S(=O)(=O)NCc2ccccc2)ccc1OCC(=O)NCC1CCCO1 (stereo not drawn)
EC50 [4]: > 53 µM (inactive)

O=C(NCC1COc2ccccc2O1)c1ccc(NC(=O)C(c2ccccc2)c2ccccc2)cc1 (stereo not drawn)
EC50 [2]: 1.88 µM (active) | EC50 [3]: > 60 µM (inconclusive)

Cc1ccc(NC(=O)c2c(C(F)(F)F)nn(C)c2SCc2ccc(Cl)cc2)cc1C
EC50 [2]: 2.84 µM (active) | EC50 [3]: > 60 µM (not active)

O=C(CNc1cccc2ccccc12)N/N=C/c1ccc[nH]1
EC50 [1]: > 150 µM (not active) | EC50 (Streptokinase A): > 150 µM (not active) | EC50 (Streptococcus): > 150 µM (not active)
